The species entered for series [1] is Rattus norvegicus. Kind of series: Vasorelaxant potency determined by measurement of IC50 value for relaxation of rat aorta precontracted with methoxamine. It is filed as functional.
The species entered for series [2] is Rattus norvegicus. The series is described as follows: Ratio of the EC25 value for time to contracture and IC50 value for vasorelaxant potency indicates selectivity in vitro for the ischemic myocardium. Format: functional.
The species named for series [3] is Rattus norvegicus. Kind of series: Antiischemic potency is determined by EC25 value for increase in time to the onset of contracture in globally ischemic isolated perfused rat hearts. It is filed as functional.
The species entered for series [4] is Rattus norvegicus. The series is described as follows: Percent increase in cardio protective activity at concentration of 10 uM. It is filed as functional, Heart.
Series [5] in a line: Oral bioavailability in rats was determined in vivo. Format: ADME, organism-based. The following applies: rat, read-out: Bioavailabiility.
Series [6] is described as follows: Pharmacokinetic parameter Tmax following oral administration of 30 umol/kg. It is filed as ADME, organism-based. As to conditions: in vivo.
Series [7] in a line: Maximum plasma concentration following oral administration of 30 umol/kg. It is filed as ADME, organism-based. On the set-up: dose 30 umol/kg, route oral.
Series [8] is described as follows: Apparent terminal elimination half life in rats. The following applies: rat, in vivo. Format: ADME, organism-based.

Structures are written as SMILES.

Regarding `CC1(C)Oc2ccc(C#N)cc2[C@H](N(Cc2ncc[nH]2)c2ccccc2)[C@H]1O`, the half-maximal inhibitory concentration (IC50) (in general, the concentration that inhibits the measured activity by half) in the series listed under Rattus norvegicus [1] is > 30 µM. Further, in the series filed under Rattus norvegicus [2], the Ratio is <0.14. In addition, in the series listed under Rattus norvegicus [3], the EC25 (as a rule, the point of the concentration-response curve where the effect stands at 25%) is 4.3 µM.

With `CCOC(=O)CN(c1ccccc1)[C@@H]1c2cc(C#N)ccc2OC(C)(C)[C@H]1O` [listing 1 of 2 here], the IC50 in the series filed under Rattus norvegicus [1] was > 30 µM. The Increase in the series filed under Rattus norvegicus [4] worked out at 5%.

`CC(=O)NCCN(c1ccccc1)[C@H]1c2cc(C#N)ccc2OC(C)(C)[C@@H]1O`: the IC50 in the series listed under Rattus norvegicus [1] was > 30 µM. Moreover, in the series filed under Rattus norvegicus [4], the Increase came to 5%.

Turning to `CCOC(=O)CN(c1nc(C)cs1)[C@H]1c2cc(C#N)ccc2OC(C)(C)[C@@H]1O`, half-maximal inhibition in the series listed under Rattus norvegicus [1] (IC50) was put at 84 µM. Besides, in the series filed under Rattus norvegicus [2], the Ratio is given as <0.09. The same molecule showed a concentration for an effect of 25% (EC25) in the series filed under Rattus norvegicus [3] of 7.8 µM.

`Cc1noc(CN(c2ccccc2)[C@H]2c3cc(C#N)ccc3OC(C)(C)[C@@H]2O)n1`: the IC50 in the series filed under Rattus norvegicus [1] was > 30 µM. In the series filed under Rattus norvegicus [2], the Ratio is <0.33. This molecule gave an EC25 in the series filed under Rattus norvegicus [3] of 10 µM.

For `CC1(C)Oc2ccc(C#N)cc2[C@@H](N(Cc2ncc[nH]2)c2ccc(Cl)cc2)[C@@H]1O`, in the series filed under Rattus norvegicus [1], the IC50 was > 30 µM. In addition, in the series listed under Rattus norvegicus [4], the Increase was determined as 14%.

For the molecule `COC(=O)c1cc2ccccc2n1[C@@H]1c2cc(C#N)ccc2OC(C)(C)[C@H]1O`, the Ratio in the series listed under Rattus norvegicus [2] was found to be 0.25. This molecule showed a concentration for an effect of 25% (EC25) in the series filed under Rattus norvegicus [3] of 8.1 µM.

In the case of `CC1(C)Oc2ccc(C#N)cc2[C@H](N(CCS(C)(=O)=O)c2ccccc2)[C@H]1O`, the IC50 in the series listed under Rattus norvegicus [1] stood at 27 µM. The Increase in the series filed under Rattus norvegicus [4] turned out to be 0%.

With `CCOC(=O)NN(c1ccccc1)[C@H]1c2cc(C#N)ccc2OC(C)(C)[C@@H]1O`, in the series filed under Rattus norvegicus [1], the 50% inhibitory concentration (IC50) was 2.2 µM. Further, the Ratio in the series filed under Rattus norvegicus [2] was 1.95. The molecule further registered an EC25 in the series filed under Rattus norvegicus [3] of 4.3 µM.

For the molecule `CC1(C)Oc2ccc(C#N)cc2[C@H](N(Cc2ncc[nH]2)c2ccc(F)cc2)[C@H]1O`, the IC50 in the series listed under Rattus norvegicus [1] is > 30 µM. Moreover, the Ratio in the series filed under Rattus norvegicus [2] came to 0.11. In the series filed under Rattus norvegicus [3], this molecule registered an EC25 of 3.3 µM.

With `CCOC(=O)CN(c1ccc(F)cc1)[C@H]1c2cc(C#N)ccc2OC(C)(C)[C@@H]1O`, in the series listed under Rattus norvegicus [1], the IC50 is > 30 µM. Also, the Ratio in the series filed under Rattus norvegicus [2] is recorded as <0.017. The 25% effect concentration (EC25) in the series filed under Rattus norvegicus [3] turned out to be 3.8 µM.

`CCOC(=O)CCCN(c1ccccc1)[C@H]1c2cc(C#N)ccc2OC(C)(C)[C@@H]1O`: in the series listed under Rattus norvegicus [1], the concentration for half-maximal inhibition (IC50) is > 30 µM. Besides, in the series listed under Rattus norvegicus [3], the EC25 is 5.7 µM.

As to `CC1(C)Oc2ccc(C#N)cc2[C@H](Nc2ccccc2)[C@H]1O`, the Ratio in the series filed under Rattus norvegicus [2] is listed as 3.9. Moreover, the 25% effect concentration (EC25) in the series listed under Rattus norvegicus [3] was determined as 3.9 µM.

In the series filed under Rattus norvegicus [1], `CC1(C)Oc2ccc(C#N)cc2[C@H](N(Cc2ccco2)c2ccccc2)[C@H]1O` displayed an IC50 of 12 µM. Besides, the Ratio in the series listed under Rattus norvegicus [2] is recorded as 0.27. In the series listed under Rattus norvegicus [3], this molecule had an EC25 of 3.2 µM.

Take `CCOC(=O)CN(c1ccccc1)[C@@H]1c2cc(C#N)ccc2OC(C)(C)[C@H]1O` [listing 2 of 2 here]: the IC50 in the series filed under Rattus norvegicus [1] is > 30 µM. In addition, the Ratio in the series filed under Rattus norvegicus [2] is reported as <0.17. This molecule displayed a 25% effect concentration (EC25) in the series filed under Rattus norvegicus [3] of 4.7 µM.

As to `CCOC(=O)CN(c1ccccc1)[C@H]1c2cc(C#N)ccc2OC(C)(C)[C@@H]1O`, the IC50 in the series listed under Rattus norvegicus [1] was > 30 µM. Besides, the Ratio in the series listed under Rattus norvegicus [2] is reported as <0.07. In the series listed under Rattus norvegicus [4], this molecule yielded an Increase of 38%. Further, the concentration for an effect of 25% (EC25) in the series listed under Rattus norvegicus [3] was determined as 2.2 µM.

With `CC1(C)Oc2ccc(C#N)cc2[C@H](N(CC#N)c2ccccc2)[C@H]1O`, the half-maximal inhibitory concentration (IC50) in the series listed under Rattus norvegicus [1] came out at 59 µM. In addition, the Increase in the series filed under Rattus norvegicus [4] is given as 8%.

On to `CCCCOC(=O)CN(c1ccccc1)[C@H]1c2cc(C#N)ccc2OC(C)(C)[C@@H]1O`, for which the half-inhibitory concentration (IC50) in the series listed under Rattus norvegicus [1] was determined as 27 µM. This molecule yielded an Increase in the series listed under Rattus norvegicus [4] of 8%.

Turning to `COCCN(c1ccccc1)[C@H]1c2cc(C#N)ccc2OC(C)(C)[C@@H]1O`, the half-maximal inhibitory concentration (IC50) in the series listed under Rattus norvegicus [1] is > 30 µM. The Increase in the series listed under Rattus norvegicus [4] was 15%.

In the case of `CC1(C)Oc2ccc(C#N)cc2[C@H](N(CC(=O)O)c2ccccc2)[C@H]1O`, in the series filed under Rattus norvegicus [1], the IC50 is > 100 µM. The same molecule had an Increase in the series listed under Rattus norvegicus [4] of 0%.

Take `CC1(C)Oc2ccc(C#N)cc2[C@H](N(Cc2ncc[nH]2)c2ccc(Cl)cc2)[C@H]1O` [BMS-191095]: the bioavailability in series [5] was determined as 47%. Besides, in series [6], the time to peak (Tmax) (as a rule, the time from dosing to the highest level) stood at 1.9 h. In the series filed under Rattus norvegicus [1], the IC50 is > 30 µM. The Ratio in the series filed under Rattus norvegicus [2] is listed as <0.05. This molecule had a 25% effect concentration (EC25) in the series listed under Rattus norvegicus [3] of 1.4 µM. In series [7], the Cmax (usually the maximum level reached in the sampled fluid or tissue) came to 1300 nM. Also, the half-life (commonly the time needed for the level to fall by half in the phase considered) in series [8] is 3 h.

`CCOC(=O)C(=O)N(c1ccc(F)cc1)[C@H]1c2cc(C#N)ccc2OC(C)(C)[C@@H]1O` displayed an IC50 in the series filed under Rattus norvegicus [1] of 43 µM. Also, in the series filed under Rattus norvegicus [4], the Increase amounted to 0%.

For `CCOC(=O)CN(c1ccc(Cl)cc1)[C@H]1c2cc(C#N)ccc2OC(C)(C)[C@@H]1O`, the concentration for half-maximal inhibition (IC50) in the series listed under Rattus norvegicus [1] was > 30 µM. Moreover, in the series filed under Rattus norvegicus [2], the Ratio is recorded as <0.22. The same molecule came in with an EC25 in the series listed under Rattus norvegicus [3] of 6.5 µM.

Regarding `CCOC(=O)CCN(c1ccccc1)[C@H]1c2cc(C#N)ccc2OC(C)(C)[C@@H]1O`, in the series filed under Rattus norvegicus [1], the half-maximal inhibitory concentration (IC50) worked out at 54 µM. The same molecule came in with an Increase in the series filed under Rattus norvegicus [4] of 26%.

Consider `CCNC(=O)CN(c1ccccc1)[C@H]1c2cc(C#N)ccc2OC(C)(C)[C@@H]1O`, for which the half-maximal inhibitory concentration (IC50) in the series listed under Rattus norvegicus [1] was > 30 µM. The same molecule registered an Increase in the series filed under Rattus norvegicus [4] of 21%.

For `CC1(C)Oc2ccc(C#N)cc2[C@@H](N2CCCC2=O)[C@@H]1O` [CROMAKALIM], in the series listed under Rattus norvegicus [2], the Ratio was 278. The same molecule showed an EC25 in the series listed under Rattus norvegicus [3] of 8.9 µM.

With `Cc1cc(CN(c2ccccc2)[C@H]2c3cc(C#N)ccc3OC(C)(C)[C@@H]2O)on1`, the IC50 in the series filed under Rattus norvegicus [1] was > 30 µM. For the same molecule, the Increase in the series listed under Rattus norvegicus [4] was found to be 11%.

In the case of `CCOC(=O)CN(c1nc2ccccc2o1)[C@H]1c2cc(C#N)ccc2OC(C)(C)[C@@H]1O`, in the series filed under Rattus norvegicus [1], the half-inhibitory concentration (IC50) is > 30 µM. This molecule also had an Increase in the series listed under Rattus norvegicus [4] of 0%.

On to `CCOP(=O)(CN(c1ccc(F)cc1)[C@H]1c2cc(C#N)ccc2OC(C)(C)[C@@H]1O)OCC`, for which the IC50 in the series listed under Rattus norvegicus [1] was determined as 47 µM. In the series filed under Rattus norvegicus [2], the Ratio is reported as 0.104. The molecule further registered an EC25 in the series listed under Rattus norvegicus [3] of 4.9 µM.

Turning to `CC1(C)Oc2ccc(C#N)cc2[C@@H](/N=C(\NC#N)Nc2ccc(Cl)cc2)[C@@H]1O`, the Ratio in the series listed under Rattus norvegicus [2] stood at 1.4. For the same molecule, in the series filed under Rattus norvegicus [3], the concentration for an effect of 25% (EC25) was determined as 2.5 µM.

For the molecule `CC1(C)Oc2ccc(C#N)cc2[C@H](N(Cc2ncco2)c2ccccc2)[C@H]1O`, in the series listed under Rattus norvegicus [1], the IC50 is > 30 µM. In the series filed under Rattus norvegicus [2], the Ratio is on record as <0.18. The molecule also yielded an EC25 in the series filed under Rattus norvegicus [3] of 5.3 µM.

The values are drawn from ChEMBL document CHEMBL1130015, “Cardioselective antiischemic ATP-sensitive potassium channel (KATP) openers. 5. Identification of 4-(N-aryl)-substituted benzopyran derivatives with high selectivity” (J Med Chem, 1997).
